≈ marks a conversion by molar mass, not a printed value. Where “and” joins values, the source holds several entries; their conditions need not be identical. Equal values may be shown once. Non-standard residues stand in square brackets, D forms with d. Residues, ends and D or L forms follow the SMILES beside them. *: point of attachment. Leu(ol) = CC(C)C[C@H](N)CO; Octanoyl = CCCCCCCC(=O)*; Aib = CC(C)(N)C(=O)O
Tests used:
[1] = tested on: Acinetobacter baumannii ATCC 17978; settings: for MBC Aba / MIC Aba: MHB, 5 × 10^5 CFU/mL, 18 h, 35 °C, triplicate; for MIC against A. baumannii, in molar units: corresponding to 2 and 8 μg/mL
Summary of the method: (§1)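 Broth microdilution in Mueller–Hinton broth, run in triplicate, inoculum 5 × 10^5 CFU/mL per CLSI M07-A10; MIC and MBC both determined. Peptides dissolved in DMSO at 25 mg/mL as stock.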

[2] = tested on: Bacillus subtilis ATCC 6633; settings: MHB, 5 × 10^5 CFU/mL, 18 h, 35 °C, triplicate
Summary of the method: as §1

[3] = tested on: Enterococcus faecalis ATCC 29212; settings: MHB, 5 × 10^5 CFU/mL, 18 h, 35 °C, triplicate
Summary of the method: as §1

Escherichia coli CCUGT = settings: MHB, 5 × 10^5 CFU/mL, 18 h, 35 °C, triplicate
Summary of the method: as §1

[4] = tested on: Klebsiella pneumoniae ATCC 13833; settings: MHB, 5 × 10^5 CFU/mL, 18 h, 35 °C, triplicate
Summary of the method: as §1

[5] = tested on: Pseudomonas aeruginosa ATCC 27853; settings: MHB, 5 × 10^5 CFU/mL, 18 h, 35 °C, triplicate
Summary of the method: as §1

[6] = tested on: Staphylococcus aureus ATCC 25923; settings: MHB, 5 × 10^5 CFU/mL, 18 h, 35 °C, triplicate
Summary of the method: as §1

[7] = tested on: Streptococcus pyogenes ATCC 12344; settings: MHB, 5 × 10^5 CFU/mL, 18 h, 35 °C, triplicate
Summary of the method: as §1

[8] = tested on: reference Gram-positive and Gram-negative strains; settings: for lowest MIC: lowest value over the eight reference strains
Summary of the method: as §1

[9] = tested on: A. baumannii SI-12 (OXA-23); settings: MHB, 5 × 10^5 CFU/mL, 18 h, 35 °C, triplicate
Method: (§2) The minimum inhibitory concentration (MIC) and the minimum bactericidal concentration (MBC) of the compounds were determined in triplicate using Mueller–Hinton broth (MHB). […] Therefore, we decided to dissolve all peptides in DMSO to a final concentration of 25 mg/mL, for consistency. The bacteria inoculum was 5 × 10^5 CFU/mL, as recommended by CLSI (Document M07-A10, 2015). […] Reference-type strains, including representatives of both Gram-positive bacteria (Bacillus subtilis ATCC 6633, Enterococcus faecalis ATCC 29212, Staphylococcus aureus ATCC 25923, the methicillin-resistant Staphylococcus aureus ATCC 43300 (MRSA), Streptococcus pyogenes ATCC 12344) and Gram-negative bacteria (Escherichia coli CCUGT, Klebsiella pneumoniae ATCC 13833, Pseudomonas aeruginosa ATCC 27853, and Acinetobacter baumannii ATCC 17978), were acquired from ATCC or CCUG culture collections. Other antibiotic-resistant clinical isolates were present in our collection at the University Teaching Hospital (Azienda Ospedaliero-Universitaria Senese ‘Santa Maria alle Scotte’) in Siena, Tuscany, Italy. Specifically, MDR carbapenem-hydrolyzing class D β-lactamase-producing Acinetobacter baumannii and metallo-β-lactamase-producing Pseudomonas aeruginosa were used in this study (Table 4).

[10] = tested on: A. baumannii SI-310 (OXA-24); settings: colistin-resistant isolate; MHB, 5 × 10^5 CFU/mL, 18 h, 35 °C, triplicate
Method: as §2

[11] = tested on: A. baumannii SI-648 (OXA-23, OXA-51-like); settings: MHB, 5 × 10^5 CFU/mL, 18 h, 35 °C, triplicate
Method: as §2

[12] = tested on: P. aeruginosa 101/1477 (IMP-1); settings: MHB, 5 × 10^5 CFU/mL, 18 h, 35 °C, triplicate
Method: as §2

[13] = tested on: P. aeruginosa 506/99 (VIM-2); settings: MHB, 5 × 10^5 CFU/mL, 18 h, 35 °C, triplicate
Method: as §2

[14] = tested on: P. aeruginosa VA-182/00 (VIM-2); settings: MHB, 5 × 10^5 CFU/mL, 18 h, 35 °C, triplicate
Method: as §2

[15] = tested on: P. aeruginosa VR-143/97 (VIM-1); settings: MHB, 5 × 10^5 CFU/mL, 18 h, 35 °C, triplicate
Method: as §2

[16] = tested on: S. aureus ATCC 43300 (MRSA); settings: MHB, 5 × 10^5 CFU/mL, 18 h, 35 °C, triplicate
Method: as §2

[17] = tested on: blood agar plate (Columbia CNA Agar); test: Hemolysis on blood agar plate; settings: 50 μg spotted on blood agar, 35 ± 2 °C, 24 h
Summary of the method: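 Peptides (50 μg, from 25 mg/mL DMSO solution) spotted on Columbia CNA blood agar, incubated at 35 ± 2 °C for 24 h. Hemolysis zone diameter measured visually, averaged over triplicates. Triton X-100 positive, DMSO negative control.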

Structure (SMILES) | MBC Aba [1] [µg/mL] | MIC Aba [1] [µg/mL] | MIC against A. baumannii, in molar units [1] [µM] | MIC Bsu [2] [µg/mL] | MBC Efa [3] | MIC Efa [3] [µg/mL] | MBC Eco (Escherichia coli CCUGT) [µg/mL] | MIC Eco (Escherichia coli CCUGT) [µg/mL] | MBC Kpn [4] [µg/mL] | MIC Kpn [4] [µg/mL] | MBC Pae [5] [µg/mL] | MIC Pae [5] [µg/mL] | MBC Sau [6] [µg/mL] | MIC Sau [6] [µg/mL] | MBC Spy [7] [µg/mL] | MIC Spy [7] [µg/mL] | lowest MIC [8] [µg/mL] | MBC A. baumannii SI-12 (OXA-23) [9] [µg/mL] | MIC A. baumannii SI-12 (OXA-23) [9] [µg/mL] | MBC A. baumannii SI-310 (OXA-24) [10] [µg/mL] | also measured
CCCCCCCC(=O)NC(C)(C)C(=O)NCC(=O)N[C@@H](CC(C)C)C(=O)NC(C)(C)C(=O)N[C@@H](CCCCN)C(=O)N[C@@H](CCCCN)C(=O)N[C@@H](CC(C)C)C(=O)NC(C)(C)C(=O)NCC(=O)N[C@H](C(=O)N[C@H](CO)CC(C)C)[C@@H](C)CC [Peptide 4, 1-Oct-Aib-Gly-Leu-Aib-Lys-Lys-Leu-Aib-Gly-Ile-Lol] | 2 (≈ 1.65 µM) | 2 (≈ 1.65 µM) | 1.8 to 7.2 | 2 (≈ 1.65 µM) | 8 µg/mL and 4 µg/mL | 2 (≈ 1.65 µM) | > 16 | 16 (≈ 13.2 µM) | 32 (≈ 26.5 µM) | 16 (≈ 13.2 µM) | 16 (≈ 13.2 µM) | 8 (≈ 6.62 µM) | 16 (≈ 13.2 µM) | 16 (≈ 13.2 µM) | 2 (≈ 1.65 µM) | 2 (≈ 1.65 µM) | 2 | 4 (≈ 3.31 µM) | 2 (≈ 1.65 µM) | 8 (≈ 6.62 µM) | MIC A. baumannii SI-310 (OXA-24) [10]: 4 µg/mL (≈ 3.31 µM); MBC A. baumannii SI-648 (OXA-23, OXA-51-like) [11]: 4 µg/mL (≈ 3.31 µM); MIC A. baumannii SI-648 (OXA-23, OXA-51-like) [11]: 4 μg/mL and 4/4 μg/mL; MBC P. aeruginosa 101/1477 (IMP-1) [12]: 16 µg/mL (≈ 13.2 µM); MIC P. aeruginosa 101/1477 (IMP-1) [12]: 8 µg/mL (≈ 6.62 µM); MBC P. aeruginosa 506/99 (VIM-2) [13]: 16 µg/mL (≈ 13.2 µM); MIC P. aeruginosa 506/99 (VIM-2) [13]: 16 µg/mL (≈ 13.2 µM); MBC P. aeruginosa VA-182/00 (VIM-2) [14]: 32 µg/mL (≈ 26.5 µM); MIC P. aeruginosa VA-182/00 (VIM-2) [14]: 16 µg/mL (≈ 13.2 µM); MBC P. aeruginosa VR-143/97 (VIM-1) [15]: 32 µg/mL (≈ 26.5 µM); MIC P. aeruginosa VR-143/97 (VIM-1) [15]: 16 µg/mL (≈ 13.2 µM); MBC S. aureus ATCC 43300 (MRSA) [16]: 8 µg/mL (≈ 6.62 µM); MIC S. aureus ATCC 43300 (MRSA) [16]: 4 µg/mL (≈ 3.31 µM); Hemolytic activity (in words) [17]: non-hemolytic
CCCCCCCC(=O)NC(C)(C)C(=O)N[C@@H](CCCCN)C(=O)N[C@@H](CC(C)C)C(=O)NC(C)(C)C(=O)N[C@@H](CCCCN)C(=O)N[C@@H](CCCCN)C(=O)N[C@@H](CC(C)C)C(=O)NC(C)(C)C(=O)N[C@@H](CCCCN)C(=O)N[C@H](C(=O)N[C@H](CO)CC(C)C)[C@@H](C)CC [Peptide 7, 1-Oct-Aib-Lys-Leu-Aib-Lys-Lys-Leu-Aib-Lys-Ile-Lol] (Octanoyl-[Aib]KL[Aib]KKL[Aib]KI[Leu(ol)]) | 16 (≈ 11.8 µM) | 2 (≈ 1.48 µM) | 1.8 to 7.2 | 2 (≈ 1.48 µM) | 8 µg/mL (≈ 5.92 µM) | 4 (≈ 2.96 µM) | 16 (≈ 11.8 µM) | 16 (≈ 11.8 µM) | 16 (≈ 11.8 µM) | 16 (≈ 11.8 µM) | > 16 | 8 (≈ 5.92 µM) | 32 (≈ 23.7 µM) | 16 (≈ 11.8 µM) | 8 (≈ 5.92 µM) | 2 (≈ 1.48 µM) | 2 | 4 (≈ 2.96 µM) | 2 (≈ 1.48 µM) | 4 (≈ 2.96 µM) | MBC Bsu [2]: 16 µg/mL (≈ 11.8 µM); MIC range, all tested bacterial strains ([8]; reference panel): 2 to 16 µg/mL; MIC A. baumannii SI-310 (OXA-24) [10]: 4 μg/mL and 4/4 μg/mL; MBC A. baumannii SI-648 (OXA-23, OXA-51-like) [11]: 4 µg/mL (≈ 2.96 µM); MIC A. baumannii SI-648 (OXA-23, OXA-51-like) [11]: 2 µg/mL (≈ 1.48 µM); MBC P. aeruginosa 101/1477 (IMP-1) [12]: 8 µg/mL (≈ 5.92 µM); MIC P. aeruginosa 101/1477 (IMP-1) [12]: 8 µg/mL (≈ 5.92 µM); MBC P. aeruginosa 506/99 (VIM-2) [13]: 8 µg/mL (≈ 5.92 µM); MIC P. aeruginosa 506/99 (VIM-2) [13]: 8 µg/mL (≈ 5.92 µM); MBC P. aeruginosa VA-182/00 (VIM-2) [14]: 8 µg/mL (≈ 5.92 µM); MIC P. aeruginosa VA-182/00 (VIM-2) [14]: 8 µg/mL (≈ 5.92 µM); MBC P. aeruginosa VR-143/97 (VIM-1) [15]: 8 µg/mL (≈ 5.92 µM); MIC P. aeruginosa VR-143/97 (VIM-1) [15]: 8 µg/mL (≈ 5.92 µM); MBC S. aureus ATCC 43300 (MRSA) [16]: 8 µg/mL (≈ 5.92 µM); MIC S. aureus ATCC 43300 (MRSA) [16]: 4 µg/mL (≈ 2.96 µM); Hemolytic activity (in words) [17]: non-hemolytic

From PMC10178204, “Peptaibol Analogs Show Potent Antibacterial Activity against Multidrug Resistant Opportunistic Pathogens” (International Journal of Molecular Sciences, 2023)
